Source: patent publication US20130095174A1, “Compositions and Methods for Transmucosal Delivery of Lofexidine” (US WORLDMEDS, LLC, priority 2008, published 2013)

Assay: In vivo absorption of lofexidine from the sublingual cavity (pharmacokinetics, sublingual vs intravenous)
Design: species or system rabbit
Protocol: These experiments determine the bioavailability of lofexidine after transmucosal administration to the sublingual tissue in rabbit and compare it to that after intravenous administration.
The transmucosal absorption of lofexidine was measured using an in vivo technique in rabbits. Following introduction of lidocaine local anesthesia, a catheter was placed in the marginal ear artery of the rabbit for blood sample collection. For intravenous administration, a catheter was placed in the marginal ear vein of the rabbit and lofexidine hydrochloride aqueous solution (0.1 mL) was administered; a sterile drug solution was prepared by filtration (double 0.22 μm filters). A dose of 1 mg/kg lofexidine was injected into the marginal ear vein cannula followed by a 0.1 mL flush with 10% (v/v) heparin/normal saline solution to keep the cannula patent.
For sublingual administration, the lofexidine dose (1 mg/kg, 0.1 mL) of the lofexidine formulation was applied to the sublingual mucosa of the rabbit.
Aliquot parts of 1 mL blood samples were collected at predetermined time points, collected into pre-heparinized tubes and immediately placed on ice. Plasma was separated by centrifugation at 3000 rpm for 10 min, placed in polypropylene tubes, and frozen at −20° C. until the time of analysis.
Bioavailability of sublingually administered drug was calculated by comparing the plasma drug concentration between sublingual and intravenous delivery routes and expressed as a percentage of the intravenous bioavailability.
The formulation instilled into the sublingual area of the rabbits in this experiment had the following composition: • Lofexidine hydrochloride 6000 mg • Isopropanol 2 mL • Phosphate buffer (0.05 M, pH 6)
The lofexidine is dissolved in the isopropanol and the phosphate buffer to make the volume up to 200 mL.
The internal standard (IS) solution was prepared by dissolving d^4-lofexidine in a methanol:water (50:50) mixture to get a (1000 ng/mL) concentration. Plasma samples (50 μL) were spiked with IS solution (10 μL), followed by vortex mixing for 1 minute. The mixture was mixed with acetonitrile (50 μL) to precipitate plasma proteins and allowed to vortex for another minute. After centrifugation for 10 minute at 10,000 rpm, the supernatant was collected into HPLC vials in preparation for analysis by Ultra Performance Liquid Chromatography Mass Spectroscopy (UPLC/MS) system.
All analytical procedures were performed using a Waters Acquity® Ultra UPLC/MS. An Acquity UPLC BEH Shield RP18 (2.1×100 mm) column (Waters) was used to separate the chemical components at 40° C. The flow rate was 0.3 mL/min of two mobile phases, (A) made of 5 mM ammonium acetate (pH 4) and acetonitrile (90:10) and (B) of acetonitrile, 5 mM ammonium acetate (pH 4) (90:10). The mass spectrometer was operated in the positive electrospray ionization (ESI) mode. The capillary voltage and cone voltage were maintained at 0.6 kV and 35 V, respectively. The source temperature and desolvation temperature were set at 100 and 350° C., respectively. Nitrogen was used as both the cone gas (50 L/h) and the desolvation gas (700 L/h). Mass chromatograms and mass spectral data were acquired and processed by MassLynx software (Waters).

[1] = rabbit, sublingual administration, 1 mg/kg single dose, rabbits (n = 3), plasma, average

CC(Oc1c(Cl)cccc1Cl)C1=NCCN1 (stereo not drawn) [lofexidine, 2-[1-(2,6 dichlorophenoxy)ethyl]-4,5-dihydro-1H-Imidazole]
bioavailability (rabbit, other: sublingual (transmucosal), sublingual vs intravenous, 1 mg/kg, rabbits, from areas under the plasma concentration versus time curves, read-out: bioavailability (of the administered dose, relative to intravenous)): ~80%
Tmax (rabbit, sublingual administration, 1 mg/kg single dose, rabbits (n = 3), plasma): 10 min
Cmax [1]: 392 ± 127 ng/mL
half-life [1]: 75 ± 2.7 min
time of peak plasma concentration following transmucosal administration (sublingual route, 1 mg/kg, rabbits): approximately 10 minutes
absorption following transmucosal administration through the sublingual route (sublingual, 1 mg/kg, rabbits, comparing AUCs with intravenous): rapidly and completely absorbed
